The record followed here is patent US11953435B2, “Zinc-responsive fluorophores” (Northwestern University, priority 2019, dated 2024).

Structures are written as SMILES. Values joined by “and” are separate entries in the source; they are usually repeats but may differ in a detail not shown here. Identical values can stand only once. “Also recorded” adds a separate entry of the source.

Data set [1] is described as follows: Metal ion response / selectivity of fluorescence. Conditions: for metal ions that inhibit the zinc response: other metal ions in the presence of excess zinc; for fluorescence response to toxic metals (Cd, Hg, Pb): relative fluorescence intensity; for metal ions to which the probe does not respond: relative fluorescence intensity in the presence of other metal ions. As for the experimental part: (§1) Aqueous solutions were prepared by using de-ionized water with resistivity […], obtained using a Milli-Q water purification system. In order to properly compare the photophysical properties of ZincBY-2, ZincBY-3, and ZincBY-4 to ZincBY-1, the photophysical properties of ZincBY-1 we remeasured. […] Stock solutions of ZincBY-1, ZincBY-2, ZincBY-3, and ZincBY-4 were prepared at concentrations of 5 mM and stored at −20° C. in aliquots that were used immediately after thawing for each experiment. Unless otherwise stated, all spectroscopic methods were conducted in aqueous buffer containing 50 mM HEPES (pH 7.2) and 0.1 M KNO3. UV-visible spectra were acquired on a PerkinElmer Lambda 650 UV/Vis spectrophotometer using quartz cuvettes from Starna (1 cm path length, 10 cm path length used in extinction coefficient and quantum yield determination). Fluorescence spectra were acquired using a PerkinElmer LS 55 fluorescence spectrophotometer. For measurements containing zinc, 99.0% ZnNO3 hexahydrate (final concentration 5 μM) was used. For experiments analyzing apo probes, N,N,N′,N′-Tetrakis(2-pyridylmethyl)ethylenediamine (TPEN) (final concentration 5 μM) was added to solution. Quantum Yield and Extinction Coefficient Determination. Quantum yields for apo and holo ZincBY-1, ZincBY-2, ZincBY-3, and ZincBY-4 were determined by plotting absorbance vs. fluorescence intensity of solutions containing ZincBY-1, ZincBY-2, ZincBY-3, or ZincBY-4 at probe concentrations ranging from 50-250 nM. Serial dilution was used to make solutions at different concentrations. Fluorescein dissolved in 0.1 N NaOH was used as the quantum yield standard, using a literature-determined quantum yield of 0.95.^3 For all fluorophore solutions, fluorescence excitation was set at 490 nm and fluorescence emission was integrated from 510 nm to 650 nm. Zinc Dissociation Constant. Fluorescence spectra were recorded using zinc probes (ZincBY-1, ZincBY-2, ZincBY-3, or ZincBY-4; 200 nM) and ZnSO4 (various concentrations). The solutions were equilibrated in the dark for 1 h prior to measurement. The concentration of ZnSO4 was varied from 1 μM to 9 mM in buffer solution (50 mM HEPES and 0.1 M KNO3, and pH 7.2) containing 10 mM EGTA. Free Zn^2+ was calculated according to a previously reported method (Ref. B4; incorporated by reference in its entirety). Data was fit to the following one-site binding equation: F=(FminKd+Fmax[Zn^2+])/(Kd+[Zn^2+]) pH Response. The fluorescence spectra of zinc probes (ZincBY-2, ZincBY-3, or ZincBY-4; 200 nM) wasere measured at various pH values (4.5-11). The following buffers were used at 50 mM concentration with 0.1 M KNO3: NaOAc/AcOH (pH 4.0-4.5), MES (pH 5.0-6.5), HEPES (pH 7.0-8.0), CHES (pH 8.5-9.5), CAPS (pH 10.0-11.0). Metal Ion Response. The fluorescence spectra of zinc probes (ZincBY-2, ZincBY-3, or ZincBY-4; 200 nM) were measured in the presence an excess of metal ion including 1 mM KNO3, 1 mM NaNO3, 1 mM CaSO4, 1 mM MgSO4, 15 μM MnSO4, 15 μM (NH4)2Fe(SO4)2, 15 μM NH4Fe(SO4)2, 15 μM CoSO4, 15 μM NiSO4, 15 μM CuSO4, 15 μM [Cu(CH3CN)4]PF6, 15 μM CdSO4, 15 μM Hg(NO3)2, 15 μM Pb(NO3)2, or 15 μM ZnSO4. The fluorescence spectra were compared to that of ZincBY-2 (200 nM), ZincBY-3 (200 nM), or ZincBY-4 (200 nM) in the presence of 10 μM TPEN. Determination of octanol-water partition coefficients (log P). A log P value for each probe was determined by agitating nanomolar solutions of each probe in a 1:1 mixture of HEPES buffer and 1-octanol. Solutions were allowed to settle for 1 h and then the fluorescence intensity of each phase was measured. Standard curves of the fluorescence of known concentrations of probes in both solutions were used to determine concentrations.

Data set [2] can be described thus: Zinc dissociation constant, fluorescence titration in buffered EGTA-zinc solution. The class given is binding. Conditions: for Kd: 200 nM probe, 50 mM HEPES, 0.1 M KNO3, pH 7.2, 10 mM EGTA; for affinity for zinc (in words): compared to other probes. As to the method:
as §1

Data set [3] can be described thus: Photophysical properties in aqueous buffer (UV-visible, fluorescence, quantum yield, extinction coefficient). Conditions: for λAbs (max) / λEm (max): aqueous buffer pH 7.2; for Extinction Coefficient (ε) / Quantum Yield (Φ): 50 nM to 250 nM probe; for fluorescence turn-on in the presence of zinc: aqueous buffered solutions; for turn-on ratio / increase in brightness in response to zinc: holo vs apo. In kind it is physicochemical. As for the experimental part:
as §1

Data set [4] is described as follows: pH response of fluorescence. The class given is physicochemical. Conditions: for pH-dependent fluorescence changes: holo and apo forms, physiological pH range (pH 4-8); for fluorescence changes of the Apo probe with pH: Apo (TPEN); for fluorescence changes of the Apo probe with pH / pH range in which fluorescence of the Zn-bound probe is stable: buffers at various pHs. As for the experimental part:
as §1

Setting [5] is: remeasured, same as originally reported, state not specified.

One may read the Kd as the concentration at which binding is half-saturated. Read a high Kd as weaker binding. As to `COc1ccc2n1[B-](F)(F)[N+]1=C(N(CCN(Cc3ccccn3)Cc3ccccn3)Cc3ccccn3)C=CC1=C2c1c(C)cc(C)cc1C` [ZincBY-1, reference compound], the “preference for Zn(II) over other biologically relevant metal ions” value in data set [1] was “responds preferentially to Zn(II) relative to other biologically relevant metal ions”. In data set [2], this compound gave a Kd of 3.72 ± 0.87 nM. Moreover, in data set [3] (Apo), the “Brightness (ε*Φ/1000)” value is 5.21(72) M^−1cm^−1, the “Extinction Coefficient (ε)” value is recorded as 2.42(33) × 10^4 M^−1cm^−1, the “Quantum Yield (Φ)” value is recorded as 0.215(5) and the “λEm (max)” value was 559 nm. Besides, the “λAbs (max)” value in data set [3] (Apo (TPEN)) came out at 529 nm. Further, in data set [3] (Zn-bound), the “Brightness (ε*Φ/1000)” value is 26.97(2.30) M^−1cm^−1; the “Extinction Coefficient (ε)” value is on record as 4.14(33) × 10^4 M^−1cm^−1; the “Quantum Yield (Φ)” value is 0.651(18) and 0.651(2); the “λAbs (max)” value was determined as 532 nm. In addition, in data set [3] (Zn-bound), the “λEm (max)” value amounted to 543 nm. For the same compound, in data set [3], the “fluorescence turn-on in the presence of zinc” value came to 5.2 and the “turn-on ratio / increase in brightness in response to zinc” value was “ca. 5 fold”. The “higher brightness on remeasurement compared to the originally reported values” in data set [3] (both apo and holo states) is given as 10 fold. Further, in data set [3] (setting [5]), the absorption wavelength came out at 533 nm and the emission wavelength was determined as 543 nm. Besides, the pH-dependent fluorescence changes entry in data set [4] is “neither the holo or apo forms of ZincBY-1 and ZincBY-4 show significant changes in fluorescence”.
Take `Cc1cc(C)c(C2=C3C=CC(OCCN=[N+]=[N-])=[N+]3[B-](F)(F)n3c2ccc3N(CCN(Cc2ccccn2)Cc2ccccn2)Cc2ccccn2)c(C)c1` [ZincBY-2, N1-(7-(2-azidoethoxy)-5,5-difluoro-10-mesityl-5H-4λ4,5λ4-dipyrrolo[1,2-c:2′,1′-f][1,3,2]diazaborinin-3-yl)-N1,N2,N2-tris(pyridin-2-ylmethyl)ethane-1,2-diamine]: in data set [1], the “metal ions that inhibit the zinc response” value is “does not fluoresce in the presence of Cu(I) and Cu(II), and these ions inhibit the zinc response”; the “fluorescence response to toxic metals (Cd, Hg, Pb)” value (from here on “fluorescence response”) is “exhibits an increase in fluorescence in response to toxic metals Cd and Hg, but does not respond to Pb”; the “metal ions to which the probe does not respond” value is on record as “does not respond to changes in K, Na, Ca, Mg, Mn, Fe, Co, or Ni concentration”. Binding in data set [2] was characterised by a dissociation constant (Kd) of 18.1 ± 2.6 nM. For the same compound, the “affinity for zinc weaker than that of ZincBY-1” value in data set [2] (relative to ZincBY-1) is recorded as “five-fold weaker”. In data set [3] (Apo), the “Brightness (ε*Φ/1000)” value is given as 2.35(58) M^−1cm^−1, the “Extinction Coefficient (ε)” value is 1.42(35) × 10^4 M^−1cm^−1, the “Quantum Yield (Φ)” value is on record as 0.164(7) and the “λEm (max)” value was 566 nm. In addition, in data set [3] (Apo (TPEN)), the “λAbs (max)” value was 532 nm. Moreover, in data set [3] (Zn-bound), the “Brightness (ε*Φ/1000)” value is listed as 13.58(1.93) M^−1cm^−1, the “Extinction Coefficient (ε)” value is 2.57(35) × 10^4 M^−1cm^−1, the “Quantum Yield (Φ)” value is on record as 0.529(22) and the “λAbs (max)” value is 532 nm. The “λEm (max)” value in data set [3] (Zn-bound) was 552 nm. In addition, in data set [4], the “fluorescence changes of the Apo probe with pH” value (“fluorescence changes … with pH” below) is “largely unaffected by changes in pH” and the “pH range in which fluorescence of the Zn-bound probe is stable” value (“pH range … of the Zn-bound probe is stable” below) was 4.5-8.0 pH.
`Cc1cc(C)c(C2=C3C=CC(OCCN)=[N+]3[B-](F)(F)n3c2ccc3N(CCN(Cc2ccccn2)Cc2ccccn2)Cc2ccccn2)c(C)c1` [ZincBY-3, N1-(7-(2-aminoethoxy)-5,5-difluoro-10-mesityl-5H-4λ4,5λ4-dipyrrolo[1,2-c:2′,1′-f][1,3,2]diazaborinin-3-yl)-N1,N2,N2-tris(pyridin-2-ylmethyl)ethane-1,2-diamine]: in data set [1], the “metal ions that inhibit the zinc response” value was “does not fluoresce in the presence of Cu(I) or Cu(II), and these ions inhibit the zinc response; also recorded: Fe(II) and Fe(III) also seem to inhibit a zinc response”; the “fluorescence response” value was “exhibits a fluorescence response to the toxic metals Cd, Hg, and Pb”; the “metal ions to which the probe does not respond” value is on record as “does not respond to changes in K, Na, Ca, Mg, Mn, Co, or Ni concentration”. For the same compound, in data set [2], binding was put at a Kd of 0.0977 ± 0.0261 nM and the “affinity for zinc (in words)” value is listed as “sub-nanomolar”. Besides, the “affinity for zinc higher than that of ZincBY-1” value in data set [2] (relative to ZincBY-1) was found to be 38 fold. In data set [3] (Apo), the “Brightness (ε*Φ/1000)” value is 1.85(8) M^−1cm^−1, the “Extinction Coefficient (ε)” value is reported as 1.16(4) × 10^4 M^−1cm^−1, the “Quantum Yield (Φ)” value is 0.158(3) and the “λEm (max)” value worked out at 585 nm. In addition, the “λAbs (max)” value in data set [3] (Apo (TPEN)) is given as 571 nm. In data set [3] (Zn-bound), the “Brightness (ε*Φ/1000)” value is 12.42(36) M^−1cm^−1, the “Extinction Coefficient (ε)” value is on record as 2.21(5) × 10^4 M^−1cm^−1, the “Quantum Yield (Φ)” value is on record as 0.562(11) and the “λAbs (max)” value is 482 nm. Moreover, the “λEm (max)” value in data set [3] (Zn-bound) is 537 nm. Further, in data set [4], the “fluorescence changes … with pH” value is recorded as “largely unaffected by changes in pH” and the “pH range … of the Zn-bound probe is stable” value is on record as 4-8 pH.
Consider `CC(=O)NCCOc1ccc2n1[B-](F)(F)[N+]1=C(N(CCN(Cc3ccccn3)Cc3ccccn3)Cc3ccccn3)C=CC1=C2c1c(C)cc(C)cc1C` [ZincBY-4, N-(2-((7-((2-(bis(pyridin-2-ylmethyl)amino)ethyl)(pyridin-2-ylmethyl)amino)-5,5-difluoro-10-mesityl-5H-5λ4,6λ4-dipyrrolo[1,2-c:2′,1′-f][1,3,2]diazaborinin-3-yl)oxy)ethyl)acetamide], for which, in data set [1], the “preference for Zn(II) over other biologically relevant metal ions” value is listed as “responds preferentially to Zn(II) relative to other biologically relevant metal ions”; the “metal ions that inhibit the zinc response” value was “does not fluoresce in the presence of Cu(II) or Hg, and these ions inhibit the zinc response; also recorded: Fe(II), Fe(III), and Co also seem to inhibit the zinc response”; the “fluorescence response” value is “exhibits a fluorescence response to the toxic metals Cd, and Pb”; the “metal ions to which the probe does not respond” value was “does not respond to changes in K, Na, Ca, Mg, Mn, Ni, or Cu(I) concentration”. Besides, in data set [2], binding was put at a Kd of 0.229 ± 0.0184 nM and the “affinity for zinc (in words)” value is “sub-nanomolar”. In data set [3] (Apo), the “Brightness (ε*Φ/1000)” value is on record as 1.44(7) M^−1cm^−1, the “Extinction Coefficient (ε)” value is reported as 0.88(4) × 10^4 M^−1cm^−1 and the “λEm (max)” value is 585 nm. Also, in data set [3] (Apo (TPEN)), the “λAbs (max)” value was determined as 572 nm. Besides, in data set [3] (Zn-bound), the “Brightness (ε*Φ/1000)” value is reported as 12.15(34) M^−1cm^−1, the “Extinction Coefficient (ε)” value was 2.12(4) × 10^4 M^−1cm^−1, the “λAbs (max)” value amounted to 482 nm and the “λEm (max)” value is reported as 537 nm. In data set [3] (apo form), the absorption peaks is 482 nm and 570 nm; the “quantum yield lower compared to ZincBY-1” value was determined as 5%. Besides, in data set [3], the “fluorescence turn-on in the presence of zinc” value was 8.4 and the “turn-on ratio / increase in brightness in response to zinc” value was 8 fold. Moreover, the “quantum yield lower compared to ZincBY-1” value in data set [3] (holo form) is listed as 10%. In addition, in data set [4], the “fluorescence changes … with pH” value is listed as “largely unaffected by changes in pH”; the “pH range … of the Zn-bound probe is stable” value was 4-8 pH; the pH-dependent fluorescence changes entry was “neither the holo or apo forms of ZincBY-1 and ZincBY-4 show significant changes in fluorescence”.
